{"source": "patent US10421779B2", "about": "“Carbazole compound having anti-virus activity” (priority 2016, dated 2019)", "format_in_all_cases": "cell-based", "key": {"[1]": {"test_system": "HCV genotype 1 b (HCV replicon system)", "assay": "HCV replicon system genotype 1b, Renilla luciferase activity", "details": "Hepatitis C virus, 72 h, HCV genotype 1b replicon, Rluc, 3 days, read-out: Replicon EC50 1b type", "procedure": "(§1) From human liver cells (Huh7.5.1 cell) infected by hepatitis C virus, the anti-virus effects by the compound of the present invention were measured. From HCV genotype 1 b (HCV replicon system), genotype 2a (HCV cell culture system, HCVcc), and genotype 3a, the EC50 values were measured.\nIn order to measure the EC50 value from HCV genotype 1 b, the degrees of HCV replication inhibitory activities of an experimental compound were measured. The EC50 value was measured by treating the experimental compound with the HCV replicon systems (genotype 1 b) having Renilla luciferase (Rluc) genes and genotype 1 b non-structure genes under various concentration conditions to compare the activity degree of the luciferase after 3 days elapsed time with that of the control."}, "[2]": {"test_system": "HCV genotype 3a (HCV replicon system)", "assay": "HCV replicon system genotype 3a, firefly luciferase activity", "details": "Hepatitis C virus, 72 h, HCV genotype 3a replicon, Fluc, 3 days, read-out: Replicon EC50 3a type", "procedure": "as §1\nIn order to measure the EC50 value from genotype 3a, the value was measured through the luciferase activity. A HCV replicon system having firefly luciferase (Fluc) genes and genotype 3a non-structure genes was used. The HCV replicon system having the genes as described above was used to treat the experimental compound under various concentration conditions, and then 3 days later, the EC50 value was measured by comparing the luciferase activity with that of the control."}, "[3]": {"test_system": "HCV genotype 2a (HCV cell culture system, HCVcc)", "assay": "HCVcc genotype 2a JFH1 (JFH 5a-Rluc) virus in Huh7.5.1 cells, luciferase assay", "details": "Hepatitis C virus, Huh-7.5.1, 72 h, HCV genotype 2a JFH 5a-Rluc, 3 days, read-out: Replicon EC50 2a type", "procedure": "as §1\nIn order to measure the EC50 value from HCV genotype 2a, a luciferase assay was used. A JFH1 clone (JFH 5a-Rluc) virus constructed to have a Renilla luciferase enzyme (Rluc) gene in NS5A protein was infected with Huh7.5.1 cell being a host cell, and then the EC50 value was measured by taking cells grown for 3 days by treating the experimental compound under various concentration conditions, and analyzing the activity degree of the luciferase."}, "[4]": {"details": "range limits given with own units (pM to nM)"}}, "note": "Where two headings read alike, the source gives them in different places."}
{"smiles": "COC(=O)N[C@@H](C(=O)N1CCC[C@H]1C(=O)Nc1ccc2c3ccc(NC(=O)[C@@H]4CCCN4C(=O)[C@H](NC(=O)OC)c4ccccc4)cc3n(Cc3cccc(NC(=O)C(C)(C)C)c3)c2c1)c1ccccc1", "note": "[Example 38, dimethyl ((1R,1′R)-((2S,2′S)-(((9-(3-pivalamidobenzyl)-9H-carbazole-2,7-diyl)bis(azanediyl))bis(carbonyl))bis(pyrrolidine-2,1-diyl))bis(2-oxo-1-phenylethane-2,1-diyl))dicarbamate]", "values": [{"measurement": "EC50", "setting": "[1]", "result": 35.4, "unit": "pM"}, {"measurement": "EC50", "setting": "[2]", "result": 81.9, "unit": "pM"}]}
{"smiles": "COC(=O)N[C@@H](C(=O)N1CCC[C@H]1C(=O)Nc1ccc2c3ccc(NC(=O)[C@@H]4CCCN4C(=O)[C@H](NC(=O)OC)c4ccccc4)cc3n(C(C3CC3)C3CC3)c2c1)c1ccccc1", "note": "[Example 49, dimethyl ((1R,1′R)-((2S,2′S)-(((9-(dicyclopropylmethyl)-9H-carbazole-2,7-diyl)bis(azanediyl))bis(carbonyl))bis(pyrrolidine-2,1-diyl))bis(2-oxo-1-phenylethane-2,1-diyl))dicarbamate]", "values": [{"measurement": "EC50", "setting": "[1]", "result": 8.4, "unit": "pM"}, {"measurement": "EC50", "setting": "[3]", "result": "> 10", "unit": "nM"}, {"measurement": "EC50", "setting": "[2]", "result": 76.6, "unit": "pM"}]}
{"smiles": "COC(=O)N[C@@H](C(=O)N1CCC[C@H]1C(=O)Nc1ccc2c3ccc(NC(=O)[C@@H]4CCCN4C(=O)[C@H](NC(=O)OC)c4ccccc4)cc3n(Cc3cccc([N+](=O)[O-])c3)c2c1)c1ccccc1", "note": "[Example 37, dimethyl ((1R,1′R)-((2S,2′S)-(((9-(3-nitrobenzyl)-9H-carbazole-2,7-diyl)bis(azanediyl))bis(carbonyl))bis(pyrrolidine-2,1-diyl))bis(2-oxo-1-phenylethane-2,1-diyl))dicarbamate]", "values": [{"measurement": "EC50", "setting": "[1]", "result": 14.5, "unit": "pM"}, {"measurement": "EC50", "setting": "[2]", "result": 87.4, "unit": "pM"}]}
{"smiles": "COC(=O)N[C@@H](C(=O)N1CCC[C@H]1C(=O)Nc1ccc2c3ccc(NC(=O)[C@@H]4CCCN4C(=O)[C@H](NC(=O)OC)c4ccccc4)cc3n(CCc3ccccc3)c2c1)c1ccccc1", "note": "[Example 50, dimethyl ((1R,1′R)-((2S,2′S)-(((9-phenethyl-9H-carbazole-2,7-diyl)bis(azanediyl))bis(carbonyl))bis(pyrrolidine-2,1-diyl))bis(2-oxo-1-phenylethane-2,1-diyl))dicarbamate]", "values": [{"measurement": "EC50", "setting": "[1]", "result": 4.34, "unit": "pM"}, {"measurement": "EC50", "setting": "[2]", "result": 183, "unit": "pM"}]}
{"smiles": "COC(=O)N[C@@H](C(=O)N1CCC[C@H]1C(=O)Nc1ccc2c3ccc(NC(=O)[C@@H]4CCCN4C(=O)[C@H](NC(=O)OC)c4ccccc4)cc3n(CCCCCCCCCCN3CCN(C)CC3)c2c1)c1ccccc1", "note": "[Example 33, dimethyl ((1R,1′R)-((2S,2′S)-(((9-(10-(4-methylpiperazine-1-yl)decyl)-9H-carbazole-2,7-diyl)bis(azanediyl))bis(carbonyl))bis(pyrrolidine-2,1-diyl))bis(2-oxo-1-phenylethane-2,1-diyl))dicarbamate]", "values": [{"measurement": "EC50", "setting": "[1]; [4]", "result": "100 to 1000", "unit": "pM"}, {"measurement": "EC50", "setting": "[2]; [4]", "result": "100 to 1000", "unit": "pM"}]}
{"smiles": "COC(=O)N[C@@H](C(=O)N1CCC[C@H]1C(=O)Nc1ccc2c3ccc(NC(=O)[C@@H]4CCCN4C(=O)[C@H](NC(=O)OC)c4ccccc4)cc3n(Cc3ccc(C(F)(F)F)cc3)c2c1)c1ccccc1", "note": "[Example 45, dimethyl ((1R,1′R)-((2S,2′S)-(((9-(4-(trifluoromethyl)benzyl)-9H-carbazole-2,7-diyl)bis(azanediyl))bis(carbonyl))bis(pyrrolidine-2,1-diyl))bis(2-oxo-1-phenylethane-2,1-diyl))dicarbamate]", "values": [{"measurement": "EC50", "setting": "[1]", "result": "~10", "unit": "pM"}, {"measurement": "EC50", "setting": "[3]", "result": "> 10", "unit": "nM"}, {"measurement": "EC50", "setting": "[2]", "result": 199, "unit": "pM"}]}
{"smiles": "CCCCCCCCCCn1c2cc(NC(=O)[C@@H]3CCCN3C(=O)[C@H](NC(=O)OC)c3ccccc3)ccc2c2ccc(NC(=O)[C@@H]3CCCN3C(=O)[C@H](NC(=O)OC)c3ccccc3)cc21", "note": "[Example 24, dimethyl ((1R,1′R)-((2S,2′S)-(((9-decyl-9H-carbazole-2,7-diyl)bis(azanediyl))bis(carbonyl))bis(pyrrolidine-2,1-diyl))bis(2-oxo-1-phenylethane-2,1-diyl))dicarbamate]", "values": [{"measurement": "EC50", "setting": "[1]", "result": "~10", "unit": "pM"}, {"measurement": "EC50", "setting": "[3]", "result": "10 to 100", "unit": "nM"}]}
{"smiles": "CCCCn1c2cc(NC(=O)[C@@H]3CCCN3C(=O)[C@H](NC(=O)OC)c3ccccc3)ccc2c2ccc(-c3c[nH]c([C@@H]4CCCN4C(=O)[C@@H](NC(=O)OC)C(C)C)n3)cc21", "note": "[Example 52, methyl ((R)-2-((S)-2-((9-butyl-7-(2-((S)-1-((methoxycarbonyl)-L-valyl)pyrrolidine-2-yl)-1H-imidazole-4-yl)-9H-carbazole-2-yl)carbamoyl)pyrrolidine-1-yl)-2-oxo-1-phenylethyl)carbamate]", "values": [{"measurement": "EC50", "setting": "[1]", "result": 12.3, "unit": "pM"}, {"measurement": "EC50", "setting": "[3]", "result": 0.171, "unit": "nM"}, {"measurement": "EC50", "setting": "[2]", "result": 148, "unit": "pM"}]}
{"smiles": "CCCCOc1ccccc1Cn1c2cc(NC(=O)[C@@H]3CCCN3C(=O)[C@H](NC(=O)OC)c3ccccc3)ccc2c2ccc(NC(=O)[C@@H]3CCCN3C(=O)[C@H](NC(=O)OC)c3ccccc3)cc21", "note": "[Example 32, dimethyl ((1R,1′R)-((2S,2′S)-(((9-(2-butoxybenzyl)-9H-carbazole-2,7-diyl)bis(azanediyl))bis(carbonyl))bis(pyrrolidine-2,1-diyl))bis(2-oxo-1-phenylethane-2,1-diyl))dicarbamate]", "values": [{"measurement": "EC50", "setting": "[1]; [4]", "result": "100 to 1000", "unit": "pM"}, {"measurement": "EC50", "setting": "[3]", "result": "1 to 10", "unit": "nM"}]}
{"smiles": "COC(=O)N[C@@H](C(=O)N1CCC[C@H]1C(=O)Nc1ccc2c3ccc(NC(=O)[C@@H]4CCCN4C(=O)[C@H](NC(=O)OC)c4ccccc4)cc3n(Cc3ccccc3C(F)(F)F)c2c1)c1ccccc1", "note": "[Example 43, dimethyl ((1R,1′R)-((2S,2′S)-(((9-(2-(trifluoromethyl)benzyl)-9H-carbazole-2,7-diyl)bis(azanediyl))bis(carbonyl))bis(pyrrolidine-2,1-diyl))bis(2-oxo-1-phenylethane-2,1-diyl))dicarbamate]", "values": [{"measurement": "EC50", "setting": "[1]", "result": "~10", "unit": "pM"}, {"measurement": "EC50", "setting": "[3]", "result": "> 10", "unit": "nM"}]}
{"smiles": "COC(=O)N[C@@H](C(=O)N1CCC[C@H]1C(=O)Nc1ccc2c3ccc(NC(=O)[C@@H]4CCCN4C(=O)[C@H](NC(=O)OC)c4ccccc4)cc3n(CC3CCCCC3)c2c1)c1ccccc1", "note": "[Example 48, dimethyl ((1R,1′R)-((2S,2′S)-(((9-(cyclohexylmethyl)-9H-carbazole-2,7-diyl)bis(azanediyl))bis(carbonyl))bis(pyrrolidine-2,1-diyl))bis(2-oxo-1-phenylethane-2,1-diyl))dicarbamate]", "values": [{"measurement": "EC50", "setting": "[1]", "result": 7.41, "unit": "pM"}, {"measurement": "EC50", "setting": "[2]", "result": 161, "unit": "pM"}]}
{"smiles": "COC(=O)N[C@H](C(=O)N1CCC[C@H]1C(=O)Nc1ccc2c3ccc(NC(=O)[C@@H]4CCCN4C(=O)[C@@H](NC(=O)OC)C(C)C)cc3n(C)c2c1)C(C)C", "note": "[Example 9, dimethyl ((2S,2′S)-((2S,2′S)-(((9-methyl-9H-carbazole-2,7-diyl)bis(azanediyl))bis(carbonyl))bis(pyrrolidine-2,1-diyl))bis(3-methyl-1-oxobutane-1,2-diyl))dicarbamate]", "values": [{"measurement": "EC50", "setting": "[1]", "result": "> 100000", "unit": "pM"}]}
{"smiles": "CCCCn1c2cc(NC(=O)[C@@H]3CCCN3C(=O)[C@@H](NC(=O)OC)C(C)C)ccc2c2ccc(-c3c[nH]c([C@@H]4CCCN4C(=O)[C@@H](NC(=O)OC)C(C)C)n3)cc21", "note": "[Example 53, methyl ((S)-1-((S)-2-((9-butyl-7-(2-((S)-1-((methoxycarbonyl)-L-valyl)pyrrolidine-2-yl)-1H-imidazole-4-yl)-9H-carbazole-2-yl)carbamoyl)pyrrolidine-1-yl)-3-methyl-1-oxobutane-2-yl)carbamate]", "values": [{"measurement": "EC50", "setting": "[1]", "result": "> 10000", "unit": "pM"}]}
